Measurements: US6982348B2, “Aminoethanol derivatives” (Takeda Pharmaceutical Company Limited, priority 2001, dated 2006)

melting point [°C] | Structure (SMILES)
149 to 150 | CC1=Cc2c(cccc2C(=O)N[C@H](Cc2cccc(OC(F)(F)C(F)F)c2)[C@@H](O)c2ccc(F)cc2)CCC1 (racemic) [Example 127, N-[(1RS,2SR)-2-(4-fluorophenyl)-2-hydroxy-1-[3-(1,1,2,2-tetrafluoroethoxy)benzyl]ethyl]-8-methyl-6,7-dihydro-5H-benzo[a]cycloheptene-1-carboxamide]
147 to 148 | O=C(N[C@H](Cc1cccc(OC(F)(F)C(F)F)c1)[C@@H](O)c1ccc(F)cc1)c1cccc2c1OCCCO2 (racemic) [Example 128, N-[(1RS,2SR)-2-(4-fluorophenyl)-2-hydroxy-1-[3-(1,1,2,2-tetrafluoroethoxy)benzyl]ethyl]-3,4-dihydro-2H-1,5-benzodioxepine-6-carboxamide]
192 to 193 | O=C(N[C@H](Cc1ccc(OC(F)(F)C(F)F)cc1)[C@@H](O)c1ccc(F)cc1)c1ccc(F)c2ccccc12 (racemic) [Example 131, 4-fluoro-N-[(1RS,2SR)-2-(4-fluorophenyl)-2-hydroxy-1-[4-(1,1,2,2-tetrafluoroethoxy)benzyl]ethyl]naphthalene-1-carboxamide]
189 to 190 | O=C(N[C@H](Cc1cccc(OC(F)(F)F)c1)[C@@H](O)c1ccc(F)cc1)c1ccc(F)c2ccccc12 (racemic) [Example 132, 4-fluoro-N-[(1RS,2SR)-2-(4-fluorophenyl)-2-hydroxy-1-[3-(trifluoromethoxy)benzyl]ethyl]naphthalene-1-carboxamide]
177 to 178 | O=C(N[C@H](Cc1cccc(OC(F)(F)F)c1)[C@@H](O)c1ccc(F)cc1)c1cccc2c1C=CCCC2 (racemic) [Example 133, N-[(1RS,2SR)-2-(4-fluorophenyl)-2-hydroxy-1-[3-(trifluoromethoxy)benzyl]ethyl]-6,7-dihydro-5H-benzo[a]cycloheptene-1-carboxamide]
230 to 231 | O=C(N[C@H](Cc1ccc(OC(F)(F)F)cc1)[C@@H](O)c1ccc(F)cc1)c1ccc(F)c2ccccc12 (racemic) [Example 134, 4-fluoro-N-[(1RS,2SR)-2-(4-fluorophenyl)-2-hydroxy-1-[4-(trifluoromethoxy)benzyl]ethyl]naphthalene-1-carboxamide]
202 to 203 | O=C(N[C@H](Cc1ccc(OC(F)(F)F)cc1)[C@@H](O)c1ccc(F)cc1)c1cccc2c1C=CCCC2 (racemic) [Example 135, N-[(1RS,2SR)-2-(4-fluorophenyl)-2-hydroxy-1-[4-(trifluoromethoxy)benzyl]ethyl]-6,7-dihydro-5H-benzo[a]cycloheptene-1-carboxamide]
158 to 159 | O=C(N[C@H](Cc1cccc(C(F)(F)F)c1)[C@@H](O)c1ccc(F)cc1)c1cccc2ccccc12 (racemic) [Example 136, N-((1RS,2SR)-2-(4-fluorophenyl)-2-hydroxy-1-((3-(trifluoromethyl)phenyl)methyl)ethyl)-1-naphthalenecarboxamide]
193 to 194 | O=C(N[C@H](Cc1cccc(C(F)(F)F)c1)[C@@H](O)c1ccc(F)cc1)c1ccc(F)c2ccccc12 (racemic) [Example 137, 4-fluoro-N-((1RS,2SR)-2-(4-fluorophenyl)-2-hydroxy-1-((3-(trifluoromethyl)phenyl)methyl)ethyl)-1-naphthalenecarboxamide]
193 to 194 | O=C(N[C@H](Cc1ccccc1C(F)(F)F)[C@@H](O)c1ccc(F)cc1)c1cccc2ccccc12 (racemic) [Example 140, N-((1RS,2SR)-2-(4-fluorophenyl)-2-hydroxy-1-((2-(trifluoromethyl)phenyl)methyl)ethyl)-1-naphthalenecarboxamide]
199 to 200 | O=C(N[C@H](Cc1ccc(F)cc1)[C@@H](O)c1ccc(F)cc1)c1cccc2ccccc12 (racemic) [Example 144, N-((1RS,2SR)-2-(4-fluorophenyl)-1-((4-fluorophenyl)methyl)-2-hydroxyethyl)-1-naphthalenecarboxamide]
198 to 199 | COc1ccc(C[C@@H](NC(=O)c2cccc3ccccc23)[C@@H](O)c2ccc(F)cc2)cc1 (racemic) [Example 148, N-((1RS,2SR)-2-(4-fluorophenyl)-2-hydroxy-1-((4-(methyloxy)phenyl)methyl)ethyl)-1-naphthalenecarboxamide]
210 to 211 | COc1ccc(C[C@@H](NC(=O)c2ccc(F)c3ccccc23)[C@@H](O)c2ccc(F)cc2)cc1 (racemic) [Example 149, 4-fluoro-N-((1RS,2SR)-2-(4-fluorophenyl)-2-hydroxy-1-((4-(methyloxy)phenyl)methyl)ethyl)-1-naphthalenecarboxamide]
212 to 213 | O=C(N[C@H](Cc1ccc(C(F)(F)F)c(F)c1)[C@@H](O)c1ccc(F)cc1)c1ccc(F)c2ccccc12 (racemic) [Example 156, N-((1RS,2SR)-2-(4-fluorophenyl)-1-((3-fluoro-4-(trifluoromethyl)phenyl)methyl)-2-hydroxyethyl)-4-fluoro-1-naphthalenecarboxamide]

The remaining lines, values behind:

Structure (SMILES) | melting point [°C]
CCOC(=O)N[C@H](Cc1cccc(OC(F)(F)C(F)F)c1)[C@@H](O)c1ccc(F)cc1 (racemic) [Example 129, ethyl N-[(1RS,2SR)-2-(4-fluorophenyl)-2-hydroxy-1-[3-(1,1,2,2-tetrafluoroethoxy)benzyl]ethyl]carbamate] | 113 to 114
CC(C)(C)OC(=O)N[C@H](Cc1cccc(OC(F)(F)C(F)F)c1)[C@@H](O)c1ccc(F)cc1 (racemic) [Example 130, tert-butyl N-[(1RS,2SR)-2-(4-fluorophenyl)-2-hydroxy-1-[3-(1,1,2,2-tetrafluoroethoxy)benzyl]ethyl]carbamate] | 145 to 146
O=C(N[C@H](Cc1cccc(C(F)(F)F)c1)[C@@H](O)c1ccc(F)cc1)C1CCCCC1 (racemic) [Example 138, N-((1RS,2SR)-2-(4-fluorophenyl)-2-hydroxy-1-((3-(trifluoromethyl)phenyl)methyl)ethyl)cyclohexanecarboxamide] | 190 to 191
O=C(CCCc1ccccc1)N[C@H](Cc1cccc(C(F)(F)F)c1)[C@@H](O)c1ccc(F)cc1 (racemic) [Example 139, N-((1RS,2SR)-2-(4-fluorophenyl)-2-hydroxy-1-((3-(trifluoromethyl)phenyl)methyl)ethyl)-4-phenylbutyramide] | 110 to 111
O=C(N[C@H](Cc1ccccc1C(F)(F)F)[C@@H](O)c1ccc(F)cc1)c1ccc(F)c2ccccc12 (racemic) [Example 141, 4-fluoro-N-((1RS,2SR)-2-(4-fluorophenyl)-2-hydroxy-1-((2-(trifluoromethyl)phenyl)methyl)ethyl)-1-naphthalenecarboxamide] | 200 to 201
O=C(N[C@H](Cc1ccccc1C(F)(F)F)[C@@H](O)c1ccc(F)cc1)C1CCCCC1 (racemic) [Example 142, N-((1RS,2SR)-2-(4-fluorophenyl)-2-hydroxy-1-((2-(trifluoromethyl)phenyl)methyl)ethyl)cyclohexanecarboxamide] | 216 to 217
O=C(CCCc1ccccc1)N[C@H](Cc1ccccc1C(F)(F)F)[C@@H](O)c1ccc(F)cc1 (racemic) [Example 143, N-((1RS,2SR)-2-(4-fluorophenyl)-2-hydroxy-1-((2-(trifluoromethyl)phenyl)methyl)ethyl)-4-phenylbutyramide] | 161 to 162
O=C(N[C@H](Cc1ccc(F)cc1)[C@@H](O)c1ccc(F)cc1)C1CCCCC1 (racemic) [Example 146, N-((1RS,2SR)-2-(4-fluorophenyl)-1-((4-fluorophenyl)methyl)-2-hydroxyethyl)cyclohexanecarboxamide] | 203 to 204
O=C(CCCc1ccccc1)N[C@H](Cc1ccc(F)cc1)[C@@H](O)c1ccc(F)cc1 (racemic) [Example 147, N-((1RS,2SR)-2-(4-fluorophenyl)-1-((4-fluorophenyl)methyl)-2-hydroxyethyl)-4-phenylbutyramide] | 147 to 148
COc1ccc(C[C@@H](NC(=O)C2CCCCC2)[C@@H](O)c2ccc(F)cc2)cc1 (racemic) [Example 150, N-((1RS,2SR)-2-(4-fluorophenyl)-2-hydroxy-1-((4-(methyloxy)phenyl)methyl)ethyl)cyclohexanecarboxamide] | 193 to 194
COc1ccc(C[C@@H](NC(=O)CCCc2ccccc2)[C@@H](O)c2ccc(F)cc2)cc1 (racemic) [Example 151, N-((1RS,2SR)-2-(4-fluorophenyl)-2-hydroxy-1-((4-(methyloxy)phenyl)methyl)ethyl)-4-phenylbutyramide] | 130 to 131
CC(C)(C)OC(=O)N[C@H](Cc1ccc(C#N)cc1)[C@@H](O)c1ccc(F)cc1 (racemic) [Example 152, tert-butyl N-[(1RS,2SR)-1-(4-cyanobenzyl)-2-(4-fluorophenyl)-2-hydroxyethyl]carbamate] | 203 to 204
N#Cc1ccc(C[C@@H](NC(=O)c2ccc(F)c3ccccc23)[C@@H](O)c2ccc(F)cc2)cc1 (racemic) [Example 153, N-[(1RS,2SR)-1-(4-cyanobenzyl)-2-(4-fluorophenyl)-2-hydroxyethyl]-4-fluoronaphthalene-1-carboxamide] | 248 to 249
CC(C)c1ccc(C[C@@H](NC(=O)c2ccc(F)c3ccccc23)[C@@H](O)c2ccc(F)cc2)cc1 (racemic) [Example 154, 4-fluoro-N-[(1RS,2SR)-2-(4-fluorophenyl)-2-hydroxy-1-(4-isopropylbenzyl)ethyl]naphthalene-1-carboxamide] | 189 to 192
O=C(CCc1ccccc1)N[C@H](Cc1ccc(C(F)(F)F)c(F)c1)[C@@H](O)c1ccc(F)cc1 (racemic) [Example 157, N-((1RS,2SR)-2-(4-fluorophenyl)-1-((3-fluoro-4-(trifluoromethyl)phenyl)methyl)-2-hydroxyethyl)-3-phenylpropanamide] | 126 to 127
O=C(N[C@H](Cc1cccc(Oc2ccccc2)c1)[C@@H](O)c1ccc(F)cc1)c1ccc(F)c2ccccc12 (racemic) [Example 160, 4-fluoro-N-((1RS,2SR)-2-(4-fluorophenyl)-2-hydroxy-1-((3-(phenyloxy)phenyl)methyl)ethyl)-1-naphthalenecarboxamide] | 120 to 121
